Source: the kinase profiling compilation of Christmann-Franck et al. (2016)

How the values were obtained:
Experiment in all cases: KINOMEscan competition binding
Conditions in all cases: compound 10.0 µM
CDK9 (human) = CDK9 (human) (UniProt P50750)
STK36 (human) = STK36 (human) (UniProt Q9NRP7)
RIPK1 (human) = RIPK1 (human) (UniProt Q13546)
FLT4 (human) = FLT4 (human) (UniProt P35916)
ROS1 (human) = ROS1 (human) (UniProt P08922)
GSK3B (human) = GSK3B (human) (UniProt P49841)
[1] = molecular target: JAK2 JH1 catalytic (human) (UniProt O60674)
JAK2 JH1 catalytic (human), sequence (O60674 whole entry, looked up): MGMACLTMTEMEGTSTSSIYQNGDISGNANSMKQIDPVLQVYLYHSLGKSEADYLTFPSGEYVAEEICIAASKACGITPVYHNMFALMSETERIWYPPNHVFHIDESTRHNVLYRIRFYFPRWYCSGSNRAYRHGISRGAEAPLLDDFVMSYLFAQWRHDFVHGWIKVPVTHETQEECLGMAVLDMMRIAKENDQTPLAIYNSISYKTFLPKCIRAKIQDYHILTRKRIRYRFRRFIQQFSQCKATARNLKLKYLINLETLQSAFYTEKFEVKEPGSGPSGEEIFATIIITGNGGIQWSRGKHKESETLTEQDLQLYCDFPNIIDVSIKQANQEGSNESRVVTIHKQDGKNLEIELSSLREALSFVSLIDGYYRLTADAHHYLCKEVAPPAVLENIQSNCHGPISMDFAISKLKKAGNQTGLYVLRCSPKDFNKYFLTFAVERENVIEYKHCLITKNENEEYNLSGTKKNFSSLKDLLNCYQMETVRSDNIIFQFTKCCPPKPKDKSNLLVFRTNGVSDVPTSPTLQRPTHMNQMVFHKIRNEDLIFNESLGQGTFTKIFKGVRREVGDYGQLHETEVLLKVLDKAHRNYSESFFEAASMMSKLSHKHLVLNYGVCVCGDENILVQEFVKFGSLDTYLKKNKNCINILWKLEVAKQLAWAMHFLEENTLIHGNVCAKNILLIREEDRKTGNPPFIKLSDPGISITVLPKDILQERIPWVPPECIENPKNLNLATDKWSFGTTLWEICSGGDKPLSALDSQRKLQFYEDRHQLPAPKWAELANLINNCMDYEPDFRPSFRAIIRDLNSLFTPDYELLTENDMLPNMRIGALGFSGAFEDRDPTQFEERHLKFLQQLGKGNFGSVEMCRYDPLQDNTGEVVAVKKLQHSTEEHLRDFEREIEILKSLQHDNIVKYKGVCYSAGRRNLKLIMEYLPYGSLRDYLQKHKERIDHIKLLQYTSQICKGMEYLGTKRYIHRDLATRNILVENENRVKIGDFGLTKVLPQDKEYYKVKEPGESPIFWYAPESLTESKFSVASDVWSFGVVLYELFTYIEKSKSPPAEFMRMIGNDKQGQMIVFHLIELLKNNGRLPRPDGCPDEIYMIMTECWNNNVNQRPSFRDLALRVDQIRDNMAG

LIMK2 (human) = LIMK2 (human) (UniProt P53671)
LIMK2 (human), sequence (P53671 whole entry, looked up): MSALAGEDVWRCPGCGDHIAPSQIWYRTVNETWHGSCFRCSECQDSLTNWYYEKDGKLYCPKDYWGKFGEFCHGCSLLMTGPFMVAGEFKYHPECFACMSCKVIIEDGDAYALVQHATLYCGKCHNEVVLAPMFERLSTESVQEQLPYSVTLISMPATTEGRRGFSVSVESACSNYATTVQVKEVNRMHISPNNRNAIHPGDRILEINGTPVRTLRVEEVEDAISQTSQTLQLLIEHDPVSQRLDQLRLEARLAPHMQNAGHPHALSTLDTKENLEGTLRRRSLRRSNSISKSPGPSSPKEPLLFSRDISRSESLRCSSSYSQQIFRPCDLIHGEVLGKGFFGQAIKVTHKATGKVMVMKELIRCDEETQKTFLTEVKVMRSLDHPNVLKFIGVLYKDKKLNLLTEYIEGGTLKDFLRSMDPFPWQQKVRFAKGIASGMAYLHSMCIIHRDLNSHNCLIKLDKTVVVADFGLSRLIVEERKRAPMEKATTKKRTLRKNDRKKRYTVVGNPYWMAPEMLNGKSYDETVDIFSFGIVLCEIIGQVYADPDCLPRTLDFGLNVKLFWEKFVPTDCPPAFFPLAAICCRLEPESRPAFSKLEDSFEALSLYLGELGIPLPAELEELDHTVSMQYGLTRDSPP

MARK3 (human) = MARK3 (human) (UniProt P27448)
STK25 (human) = STK25 (human) (UniProt O00506)
CLK3 (human) = CLK3 (human) (UniProt P49761)
STK17A (human) = STK17A (human) (UniProt Q9UEE5)
STK11 (human) = STK11 (human) (UniProt Q15831)
STK24 (human) = STK24 (human) (UniProt Q9Y6E0)
PIK3C2B (human) = PIK3C2B (human) (UniProt O00750)
PDPK1 (human) = PDPK1 (human) (UniProt O15530)
RPS6KA2 KD1 (human) = RPS6KA2 KD1 (human) (UniProt Q15349)
IKBKB (human) = IKBKB (human) (UniProt O14920)
AURKA (human) = AURKA (human) (UniProt O14965)
CSF1R (human) = CSF1R (human) (UniProt P07333)
RPS6KA6 KD1 (human) = RPS6KA6 KD1 (human) (UniProt Q9UK32)
CHUK (human) = CHUK (human) (UniProt O15111)
RIOK1 (human) = RIOK1 (human) (UniProt Q9BRS2)
MLTK (human) = MLTK (human) (UniProt Q9NYL2)
LTK (human) = LTK (human) (UniProt P29376)
LTK (human), sequence (P29376 whole entry, looked up): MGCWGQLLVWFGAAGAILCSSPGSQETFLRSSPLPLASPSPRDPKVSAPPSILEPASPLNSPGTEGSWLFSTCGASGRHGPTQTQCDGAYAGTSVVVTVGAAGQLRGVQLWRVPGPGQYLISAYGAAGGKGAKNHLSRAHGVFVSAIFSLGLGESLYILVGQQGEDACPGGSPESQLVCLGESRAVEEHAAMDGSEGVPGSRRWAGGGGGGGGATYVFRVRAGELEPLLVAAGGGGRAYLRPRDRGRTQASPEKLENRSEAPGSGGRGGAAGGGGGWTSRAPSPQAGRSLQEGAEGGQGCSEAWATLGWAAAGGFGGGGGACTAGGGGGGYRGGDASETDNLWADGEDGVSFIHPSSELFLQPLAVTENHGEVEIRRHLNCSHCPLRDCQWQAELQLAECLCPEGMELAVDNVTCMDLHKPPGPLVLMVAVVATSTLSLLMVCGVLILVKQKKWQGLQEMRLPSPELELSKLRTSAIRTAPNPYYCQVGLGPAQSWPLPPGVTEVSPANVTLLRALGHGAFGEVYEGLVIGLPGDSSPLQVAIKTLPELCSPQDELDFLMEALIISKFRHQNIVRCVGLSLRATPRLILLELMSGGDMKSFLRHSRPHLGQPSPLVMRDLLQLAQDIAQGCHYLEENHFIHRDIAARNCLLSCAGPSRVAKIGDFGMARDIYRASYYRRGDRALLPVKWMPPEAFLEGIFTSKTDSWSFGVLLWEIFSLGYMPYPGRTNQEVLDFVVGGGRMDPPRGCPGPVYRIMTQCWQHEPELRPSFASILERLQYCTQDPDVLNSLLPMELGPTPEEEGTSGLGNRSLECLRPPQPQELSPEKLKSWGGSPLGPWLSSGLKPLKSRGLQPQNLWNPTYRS

MAP3K5 (human) = MAP3K5 (human) (UniProt Q99683)
EGFR (human) = EGFR (human) (UniProt P00533)
TNNI3K (human) = TNNI3K (human) (UniProt Q59H18)
KDR (human) = KDR (human) (UniProt P35968)
CDK14 (human) = CDK14 (human) (UniProt O94921)
CDK14 (human), sequence (O94921 whole entry, looked up): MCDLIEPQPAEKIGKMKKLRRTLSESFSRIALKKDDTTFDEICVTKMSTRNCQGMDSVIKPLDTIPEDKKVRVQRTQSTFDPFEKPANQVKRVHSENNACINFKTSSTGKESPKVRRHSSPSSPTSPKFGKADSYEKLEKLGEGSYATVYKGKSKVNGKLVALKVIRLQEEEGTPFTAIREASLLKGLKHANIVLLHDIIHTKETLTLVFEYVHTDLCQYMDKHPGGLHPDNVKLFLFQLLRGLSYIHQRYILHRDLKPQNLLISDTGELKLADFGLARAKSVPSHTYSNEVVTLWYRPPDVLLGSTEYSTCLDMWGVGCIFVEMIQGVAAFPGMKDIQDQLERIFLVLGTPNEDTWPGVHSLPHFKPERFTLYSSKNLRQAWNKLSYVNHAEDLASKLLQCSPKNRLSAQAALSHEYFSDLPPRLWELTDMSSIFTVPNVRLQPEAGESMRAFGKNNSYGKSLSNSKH

EPHA2 (human) = EPHA2 (human) (UniProt P29317)
ALK (human) = ALK (human) (UniProt Q9UM73)

CDK9 (human), sequence (P50750 whole entry, looked up): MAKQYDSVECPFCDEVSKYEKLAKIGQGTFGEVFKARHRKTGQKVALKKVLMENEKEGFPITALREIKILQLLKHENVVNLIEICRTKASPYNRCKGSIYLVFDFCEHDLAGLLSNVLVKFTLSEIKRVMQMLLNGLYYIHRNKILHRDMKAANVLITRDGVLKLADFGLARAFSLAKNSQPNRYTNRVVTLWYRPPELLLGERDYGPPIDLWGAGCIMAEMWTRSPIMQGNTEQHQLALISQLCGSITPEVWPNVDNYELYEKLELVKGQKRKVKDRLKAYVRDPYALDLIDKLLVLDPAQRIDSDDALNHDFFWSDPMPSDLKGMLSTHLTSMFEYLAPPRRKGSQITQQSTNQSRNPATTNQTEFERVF
FLT4 (human), sequence (P35916 whole entry, looked up): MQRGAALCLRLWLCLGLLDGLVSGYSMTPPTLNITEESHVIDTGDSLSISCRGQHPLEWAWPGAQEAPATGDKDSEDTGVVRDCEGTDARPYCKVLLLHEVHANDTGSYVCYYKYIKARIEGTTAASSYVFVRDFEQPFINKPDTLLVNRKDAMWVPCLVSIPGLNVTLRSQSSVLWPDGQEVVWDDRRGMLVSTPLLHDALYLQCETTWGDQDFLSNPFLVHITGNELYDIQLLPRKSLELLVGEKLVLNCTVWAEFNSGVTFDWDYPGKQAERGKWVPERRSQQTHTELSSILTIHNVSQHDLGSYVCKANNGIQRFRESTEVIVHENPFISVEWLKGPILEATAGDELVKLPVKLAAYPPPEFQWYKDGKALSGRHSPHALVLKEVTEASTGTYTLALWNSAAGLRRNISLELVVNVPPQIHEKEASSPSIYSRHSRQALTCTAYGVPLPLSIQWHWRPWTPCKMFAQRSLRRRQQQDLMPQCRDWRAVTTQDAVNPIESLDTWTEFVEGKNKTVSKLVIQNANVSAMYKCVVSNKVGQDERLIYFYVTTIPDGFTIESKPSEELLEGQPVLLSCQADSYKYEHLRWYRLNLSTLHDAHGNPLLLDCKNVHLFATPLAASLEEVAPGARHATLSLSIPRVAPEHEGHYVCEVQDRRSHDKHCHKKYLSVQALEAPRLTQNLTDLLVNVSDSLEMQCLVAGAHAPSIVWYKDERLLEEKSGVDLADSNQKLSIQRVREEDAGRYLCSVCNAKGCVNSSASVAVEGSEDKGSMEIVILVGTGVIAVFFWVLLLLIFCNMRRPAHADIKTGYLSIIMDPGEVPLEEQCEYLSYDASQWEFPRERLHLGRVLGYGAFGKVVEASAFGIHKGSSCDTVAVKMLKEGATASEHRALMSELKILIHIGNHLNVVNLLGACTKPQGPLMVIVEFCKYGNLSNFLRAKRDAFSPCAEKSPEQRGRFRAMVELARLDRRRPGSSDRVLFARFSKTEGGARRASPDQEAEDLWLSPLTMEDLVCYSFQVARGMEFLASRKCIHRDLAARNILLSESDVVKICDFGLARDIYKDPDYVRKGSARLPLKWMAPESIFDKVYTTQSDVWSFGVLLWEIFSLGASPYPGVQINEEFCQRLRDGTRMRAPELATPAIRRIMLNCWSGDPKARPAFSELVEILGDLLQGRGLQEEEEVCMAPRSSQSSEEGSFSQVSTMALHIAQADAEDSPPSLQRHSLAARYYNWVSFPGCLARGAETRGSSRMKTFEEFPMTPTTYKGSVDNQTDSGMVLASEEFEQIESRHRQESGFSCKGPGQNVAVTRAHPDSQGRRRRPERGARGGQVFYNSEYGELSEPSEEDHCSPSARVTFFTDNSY

| Structure (SMILES) | kinase still bound, per cent of control (CDK9 (human)) [%] | kinase still bound, per cent of control (STK36 (human)) [%] | kinase still bound, per cent of control (RIPK1 (human)) [%] | kinase still bound, per cent of control (FLT4 (human)) [%] | kinase still bound, per cent of control (ROS1 (human)) [%] | kinase still bound, per cent of control (GSK3B (human)) [%] | kinase still bound, per cent of control [1] [%] | kinase still bound, per cent of control (LIMK2 (human)) [%] | kinase still bound, per cent of control (MARK3 (human)) [%] | kinase still bound, per cent of control (STK25 (human)) [%] | kinase still bound, per cent of control (CLK3 (human)) [%] | kinase still bound, per cent of control (STK17A (human)) [%] | kinase still bound, per cent of control (STK11 (human)) [%] | kinase still bound, per cent of control (STK24 (human)) [%] | kinase still bound, per cent of control (PDPK1 (human)) [%] | kinase still bound, per cent of control (RPS6KA2 KD1 (human)) [%] | kinase still bound, per cent of control (AURKA (human)) [%] | kinase still bound, per cent of control (CSF1R (human)) [%] | kinase still bound, per cent of control (RPS6KA6 KD1 (human)) [%] | kinase still bound, per cent of control (RIOK1 (human)) [%] | also measured |
| --- | --- | --- | --- | --- | --- | --- | --- | --- | --- | --- | --- | --- | --- | --- | --- | --- | --- | --- | --- | --- | --- |
| COc1cc(C)c(Sc2cnc(NC(=O)c3ccc(CNC(C)C(C)C)cc3)s2)cc1C(=O)N1CCN(C(C)=O)CC1 (stereo unspecified) | 100 | 100 | 100 | 100 | 100 | 100 | 100 | 100 | 100 | 100 | 19 | 100 | 100 | 33 | 100 | 100 | 100 | 100 | 100 | 100 | kinase still bound, per cent of control (PIK3C2B (human)): 100%; kinase still bound, per cent of control (IKBKB (human)): 100%; kinase still bound, per cent of control (CHUK (human)): 100%; kinase still bound, per cent of control (MLTK (human)): 100%; kinase still bound, per cent of control (LTK (human)): 34%; kinase still bound, per cent of control (MAP3K5 (human)): 100%; kinase still bound, per cent of control (EGFR (human)): 100%; kinase still bound, per cent of control (TNNI3K (human)): 100%; kinase still bound, per cent of control (KDR (human)): 100%; kinase still bound, per cent of control (CDK14 (human)): 100%; kinase still bound, per cent of control (EPHA2 (human)): 25%; kinase still bound, per cent of control (ALK (human)): 4.6% |
| COc1ccc(N(C(=O)Oc2cc(C(=O)Nc3cccc(C(F)(F)F)c3)ccc2C)c2ccnc(Nc3ccc(N4CCN(C)CC4)cc3)n2)c(OC)c1 | 100 | 1.2 | 100 | 2 | 1.9 | 100 | 2.3 | 0 | 100 | 100 | 100 | 100 | 100 | 100 | 100 | 100 | 100 | 0.35 | 100 | 100 | kinase still bound, per cent of control (MLTK (human)): 2.1%; kinase still bound, per cent of control (LTK (human)): 2.7%; kinase still bound, per cent of control (MAP3K5 (human)): 100%; kinase still bound, per cent of control (EGFR (human)): 3.4%; kinase still bound, per cent of control (TNNI3K (human)): 0.6%; kinase still bound, per cent of control (KDR (human)): 4.5%; kinase still bound, per cent of control (CDK14 (human)): 100%; kinase still bound, per cent of control (EPHA2 (human)): 4.2%; kinase still bound, per cent of control (ALK (human)): 10% |
